# In US12344595B2, “2-amino-n-phenyl-nicotinamides as NAV1.8 inhibitors” (Merck Sharp & Dohme LLC, priority 2018, dated 2025):
# Target: human Nav1.8 (Homo sapiens (Human), UniProt Q9Y5Y9)
# Test: Nav1.8 Qube automated patch-clamp assay
# Assay type: cell-based
# Conditions: Nav1.8 Qube Assay; human Nav1.8 channels stably expressed in HEK 293 cells
# Outline: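 IC50 values came from Hill fitting of peak currents: pulse 1 for resting-state and pulse 10 for inactivated-state inhibition. Currents were recorded in stably transfected HEK293 cells at room temperature, with ten 20 ms steps to 10 mV at 1 Hz from a −90 mV hold. External solution was 150 mM NaCl-based; internal solution was CsF/CsCl.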
# human Nav1.8, sequence (Q9Y5Y9 whole entry): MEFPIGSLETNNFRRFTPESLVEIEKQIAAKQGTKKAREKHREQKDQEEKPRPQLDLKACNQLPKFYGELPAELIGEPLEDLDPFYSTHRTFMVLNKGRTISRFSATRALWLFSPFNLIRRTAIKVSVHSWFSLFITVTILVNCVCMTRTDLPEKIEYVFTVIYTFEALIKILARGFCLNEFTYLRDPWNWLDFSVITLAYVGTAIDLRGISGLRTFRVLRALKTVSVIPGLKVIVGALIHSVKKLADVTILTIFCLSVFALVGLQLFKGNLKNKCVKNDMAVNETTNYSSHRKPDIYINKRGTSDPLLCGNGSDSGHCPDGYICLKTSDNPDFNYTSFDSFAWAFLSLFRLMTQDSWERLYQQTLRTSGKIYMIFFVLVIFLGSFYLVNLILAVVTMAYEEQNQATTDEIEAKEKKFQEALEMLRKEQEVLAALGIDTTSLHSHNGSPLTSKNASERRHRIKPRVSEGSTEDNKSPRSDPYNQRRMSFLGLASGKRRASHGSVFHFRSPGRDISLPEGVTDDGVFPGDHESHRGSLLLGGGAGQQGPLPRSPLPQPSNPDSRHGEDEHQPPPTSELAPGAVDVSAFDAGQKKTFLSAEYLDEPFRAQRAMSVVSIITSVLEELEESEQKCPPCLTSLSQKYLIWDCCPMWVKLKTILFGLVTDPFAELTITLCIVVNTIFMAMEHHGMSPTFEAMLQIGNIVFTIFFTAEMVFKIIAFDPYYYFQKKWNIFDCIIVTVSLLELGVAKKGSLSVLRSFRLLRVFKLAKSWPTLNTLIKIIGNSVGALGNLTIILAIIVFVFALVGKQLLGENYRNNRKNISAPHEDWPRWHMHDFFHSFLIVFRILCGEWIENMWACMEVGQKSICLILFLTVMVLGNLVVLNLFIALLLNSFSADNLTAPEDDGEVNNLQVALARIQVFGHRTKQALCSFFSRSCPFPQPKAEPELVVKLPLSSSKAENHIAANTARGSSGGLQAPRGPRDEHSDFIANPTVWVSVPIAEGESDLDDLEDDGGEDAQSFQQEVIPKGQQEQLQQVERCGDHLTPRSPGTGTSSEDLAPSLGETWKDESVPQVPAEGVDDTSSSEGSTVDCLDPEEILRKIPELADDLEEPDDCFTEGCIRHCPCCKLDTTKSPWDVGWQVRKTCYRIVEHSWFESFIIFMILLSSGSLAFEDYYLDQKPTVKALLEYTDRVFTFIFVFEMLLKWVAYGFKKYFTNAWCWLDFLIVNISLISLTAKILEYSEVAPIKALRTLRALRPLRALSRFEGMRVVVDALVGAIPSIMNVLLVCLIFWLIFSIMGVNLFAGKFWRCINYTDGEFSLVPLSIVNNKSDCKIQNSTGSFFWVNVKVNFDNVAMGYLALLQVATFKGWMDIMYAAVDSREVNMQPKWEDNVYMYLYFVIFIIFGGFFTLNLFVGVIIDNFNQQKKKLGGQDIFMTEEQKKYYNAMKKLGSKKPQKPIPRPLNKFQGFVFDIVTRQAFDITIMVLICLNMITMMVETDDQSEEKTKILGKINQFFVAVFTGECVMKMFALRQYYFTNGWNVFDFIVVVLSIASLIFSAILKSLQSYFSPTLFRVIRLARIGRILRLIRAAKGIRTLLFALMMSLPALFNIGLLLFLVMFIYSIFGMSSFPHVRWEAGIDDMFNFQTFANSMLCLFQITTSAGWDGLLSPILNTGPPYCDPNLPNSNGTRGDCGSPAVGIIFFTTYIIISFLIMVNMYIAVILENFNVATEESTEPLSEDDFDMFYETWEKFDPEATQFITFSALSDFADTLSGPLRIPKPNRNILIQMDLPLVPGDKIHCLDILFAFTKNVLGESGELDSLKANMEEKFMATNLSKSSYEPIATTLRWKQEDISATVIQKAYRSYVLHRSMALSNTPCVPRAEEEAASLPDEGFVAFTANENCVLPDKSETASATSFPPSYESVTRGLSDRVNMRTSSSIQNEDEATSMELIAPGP
row,SMILES,IC50 [nM]
1,"COC(=O)C1CCCCN(c2ncc(C(F)(F)F)cc2C(=O)Nc2cccc(S(N)(=O)=O)c2)C1 (stereo not shown) [Example 67, methyl 1-[3-[(3-sulfamoylphenyl)carbamoyl]-5-(trifluoro-methyl)-2-pyridyl]-azepane-3-carboxylate]",2980
2,"NS(=O)(=O)c1cccc(NC(=O)c2cc(C(F)(F)F)cnc2N2C[C@H]3C[C@@H](C2)C3(F)F)c1 [Example 132, 2-[(1R,5S)-6,6-difluoro-3-azabicyclo[3.1.1]-heptan-3-yl]-N-(3-sulfamoylphenyl)-5-(trifluoromethyl)-pyridine-3-carboxamide]",170
3,"CS(=O)(=O)c1cccc(NC(=O)c2ccc(Cl)nc2N2CCCC(F)(F)CC2)c1 [Example 9, 6-chloro-2-(4,4-difluoroazepan-1-yl)-N-(3-methylsulfonyl-phenyl)pyridine-3-carboxamide]",7
4,"Cc1nc(N2CCCC(F)(F)CC2)c(C(=O)N(C)c2cccc(S(N)(=O)=O)c2)c(C)c1Cl [Example 179, 5-chloro-2-(4,4-difluoroazepan-1-yl)-N,4,6-trimethyl-N-(3-sulfamoylphenyl)nicotinamide]",873
5,"CC1CN(c2ncc(C(F)(F)F)cc2C(=O)Nc2ccc3c(c2)S(=O)(=O)NC3)CCC1(F)F (single isomer, unassigned) [Example 113, 2-[(3S or 3R)-4,4-difluoro-3-methyl-1-piperidyl]-N-(1,1-dioxo-2,3-dihydro-1,2-benzothiazol-6-yl)-5-(trifluoromethyl) pyridine-3-carboxamide]",73
6,"NS(=O)(=O)c1cccc(NC(=O)c2cc(C(F)(F)F)cnc2N2CC3CC2CC3(F)F)c1 (single isomer, unassigned) [Example 137, 2-[(1S,4S or 1R,4R)-5,5-difluoro-2-azabicyclo-[2.2.1]heptan-2-yl]-N-(3-sulfamoylphenyl)-5-(trifluoromethyl)-pyridine-3-carboxamide]",82
7,"NS(=O)(=O)c1cccc(NC(=O)c2cc(C(F)(F)F)cnc2N2CCCOCC2)c1 [Example 56, 2-(1,4-oxazepan-4-yl)-N-(3-sulfamoylphenyl)-5-(trifluoromethyl)-pyridine-3-carboxamide]",448
8,"Cc1nc(N2CCCC(F)(F)CC2)c(C(=O)Nc2cccc(C(N)=O)c2)cc1C#N [Example 177, N-(3-carbamoylphenyl)-5-cyano-2-(4,4-difluoroazepan-1-yl)-6-methyl-pyridine-3-carboxamide]",28
9,"CS(=O)(=O)c1cccc(NC(=O)c2cc(C(F)(F)F)cnc2N2Cc3ccccc3C2)c1 [Example 103, 2-isoindolin-2-yl-N-(3-methylsulfonylphenyl)-5-(trifluoromethyl)-pyridine-3-carboxamide]",2330
10,"NS(=O)(=O)c1cccc(NC(=O)c2cc(C(F)(F)F)cnc2N2CCc3scnc3C2)c1 [Example 55, 2-(6,7-dihydro-4H-thiazol[4,5-c]pyridin-5-yl)-N-(3-sulfamoyl-phenyl)-5-(trifluoro-methyl)pyridine-3-carboxamide]",405
11,"NS(=O)(=O)c1cccc(NC(=O)c2cc(C(F)(F)F)cnc2N2CC3CCC3(C(F)(F)F)C2)c1 (single isomer, unassigned) [Example 131, N-(3-sulfamoylphenyl)-5-(trifluoromethyl)-2-[(1S,5S or 1R,5R)-1-(trifluoromethyl)-3-azabicyclo[3.2.0]heptan-3-yl]pyridine-3-carboxamide]",113
12,"Cc1nc(N2CCC3(CC2)CC3)c(C(=O)Nc2cccc(C(N)=O)c2)c(C)c1Cl [Example 13, 2-(6-azaspiro[2.5]-octan-6-yl)-N-(3-carbamoyl-phenyl)-5-chloro-4,6-dimethyl-pyridine-3-carboxamide]",13
13,"Cc1cc(Cl)nc(N2CCCCCC2)c1C(=O)Nc1cccc(S(N)(=O)=O)c1 [Example 29, 2-(azepan-1-yl)-6-chloro-4-methyl-N-(3-sulfamoylphenyl)nicotinamide]",10
14,"NS(=O)(=O)c1cccc(NC(=O)c2cnc(C3CC3)nc2N2CCCC(F)(F)CC2)c1 [Example 180, 2-cyclopropyl-4-(4,4-difluoroazepan-1-yl)-N-(3-sulfamoylphenyl)pyrimidine-5-carboxamide]",24
15,"Cc1ccnc(N2CCCCCC2)c1C(=O)Nc1cccc(S(N)(=O)=O)c1 [Example 175, 2-(azepan-1-yl)-4-methyl-N-(3-sulfamoyl-phenyl)pyridine-3-carboxamide]",290
16,"NS(=O)(=O)c1cccc(NC(=O)c2cc(F)c(Cl)nc2N2CCCCCC2)c1 [Example 92, 2-(azepan-1-yl)-6-chloro-5-fluoro-N-(3-sulfamoylphenyl)-pyridine-3-carboxamide]",31
17,"NC(=O)c1cccc(NC(=O)c2cc(C(F)(F)C(F)(F)F)cnc2N2CCCCCC2)c1 [Example 167, 2-(azepan-1-yl)-N-(3-carbamoylphenyl)-5-(1,1,2,2,2-penta-fluoroethyl)pyridine-3-carboxamide]",85
18,"NS(=O)(=O)c1cccc(NC(=O)c2cc(OC(F)F)cnc2N2CCCC(F)(F)CC2)c1 [Example 172, 2-(4,4-difluoroazepan-1-yl)-5-(difluoromethoxy)-N-(3-sulfamoylphenyl)nicotinamide]",7.5
19,"C[Si](C)(C)c1cnc(N2CCCCCC2)c(C(=O)Nc2cccc(S(N)(=O)=O)c2)c1 [Example 86, 2-(azepan-1-yl)-N-(3-sulfamoylphenyl)-5-(trimethylsilyl)nicotinamide]",77
20,"CC1CCN(c2ncc(C(F)(F)F)cc2C(=O)Nc2cccc(S(N)(=O)=O)c2)CC(C)(C)C1 (stereo not shown) [Example 47, N-(3-sulfamoylphenyl)-5-(trifluoromethyl)-2-(3,3,5-trimethylazepan-1-yl)pyridine-3-carboxamide]",29
21,"CC(C)(C)c1ccc(C(=O)Nc2cccc(S(C)(=O)=O)c2)c(N2CCCCC2)n1 [Example 41, 6-tert-butyl-N-(3-methylsulfonylphenyl)-2-(1-piperidyl)pyridine-3-carboxamide]",4630
22,"COc1ccc(C(=O)Nc2cccc(C(N)=O)c2)c(N2CCCC(F)(F)CC2)n1 [Example 18, N-(3-carbamoyl-phenyl)-2-(4,4-difluoroazepan-1-yl)-6-methoxy-pyridine-3-carboxamide]",52
23,"O=C(Nc1cccc(S(=O)(=O)Nc2ccncn2)c1)c1cc(C(F)(F)F)cnc1N1CCCCCC1 [Example 151, 2-(azepan-1-yl)-3-((3-(N-(pyrimidin-4-yl)sulfamoyl)phenyl)carbamoyl)-5-(trifluoromethyl)pyridin-1-ium]",687
24,"C[C@H]1CN(c2ncc(C(F)(F)F)cc2C(=O)Nc2cccc(S(N)(=O)=O)c2)C[C@H](C(F)(F)F)O1 [Example 145, 2-[(2S,6R)-2-methyl-6-(trifluoromethyl)morpholin-4-yl]-N-(3-sulfamoyl-phenyl)-5-(trifluoro-methyl)pyridine-3-carboxamide]",15
25,"NS(=O)(=O)c1cccc(NC(=O)c2cc(C(F)(F)F)cnc2N2CCCC3(C2)CC3(F)F)c1 (single isomer, unassigned) [Example 126, 2-[(3S or 3R)-2,2-difluoro-5-azaspiro[2.5]-octan-5-yl]-N-(3-sulfamoylphenyl)-5-(trifluoromethyl)-pyridine-3-carboxamide]",14
